# Results as given in PubChem BioAssay (NCI).
#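 Values below derive from 48-hour exposures of cells grown in 96-well plates, with endpoints linearly interpolated between the two concentrations bracketing the appropriate inhibition level. GI50: concentration for 50% inhibition of growth. TGI: total growth inhibition.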
# Key:
# Experiment in all cases: NCI-60 cell line screen, 48 h
# [1] = system: CCRF-CEM leukemia
# [2] = system: UACC-62 melanoma
# [3] = system: T-47D breast
# [4] = system: HCC-2998 colon
# [5] = system: MALME-3M melanoma
# [6] = system: 786-0 renal
# [7] = system: OVCAR-5 ovarian
# [8] = system: SF-539 CNS
# [9] = system: EKVX NSCLC
# [10] = system: NCI-H23 lung
# [11] = system: BT-549 breast
# [12] = system: SF-268 CNS
# [13] = system: HCT-15 colon
# [14] = system: U251 CNS
# [15] = system: ACHN renal
# [16] = system: SK-MEL-28 melanoma
# [17] = system: OVCAR-8 ovarian
# [18] = system: SNB-75 CNS
# [19] = system: A498 renal
# [20] = system: UO-31 renal
# [21] = system: CAKI-1 renal
# [22] = system: MDA-MB-231 breast
# [23] = system: UACC-257 melanoma
# [24] = system: KM12 colon
# [25] = system: SN12C renal
# [26] = system: MOLT-4 leukemia
# [27] = system: OVCAR-3 ovarian
# [28] = system: A549 NSCLC
# [29] = system: SR leukemia
# [30] = system: COLO 205 colon
# [31] = system: SNB-19 CNS
# [32] = system: OVCAR-4 ovarian
# [33] = system: SF-295 CNS
# [34] = system: HCT-116 colon
# [35] = system: SK-MEL-2 melanoma
# [36] = system: M14 melanoma
# [37] = system: HS 578T breast
# [38] = system: MDA-MB-435
# [39] = system: PC-3 prostate
# [40] = system: HT29 colon
# [41] = system: TK-10 renal
# [42] = system: NCI-H226 lung
# [43] = system: DU-145 prostate
# [44] = system: NCI-H522 lung
# [45] = system: LOX IMVI melanoma
# [46] = system: HOP-62 NSCLC
# [47] = system: NCI/ADR-RES ovarian
# [48] = system: NCI-H460 lung
# [49] = system: SK-OV-3 ovarian
# [50] = system: RPMI-8226 leukemia
# [51] = system: IGROV1 ovarian
# [52] = system: RXF 393 renal
# [53] = system: SW-620 colon
# [54] = system: HOP-92 NSCLC
# [55] = system: MCF7 breast
smiles,measurement,setting,value
N#Cc1c(NCc2ccccc2)nc(NCc2ccccc2)c(C#N)c1-c1cccc(O)c1,GI50,[1],3.38 µM
same,TGI,[1],> 100 µM
same,GI50,[2],2.1 µM
same,TGI,[2],7.04 µM
same,GI50,[3],4.03 µM
same,TGI,[3],> 100 µM
same,GI50,[4],95.5 µM
same,TGI,[4],> 100 µM
same,GI50,[5],10.1 µM
same,TGI,[5],32.5 µM
same,GI50,[6],13 µM
same,TGI,[6],27.6 µM
same,GI50,[7],21.3 µM
same,TGI,[7],48 µM
same,GI50,[8],5.18 µM
same,TGI,[8],22.1 µM
same,GI50,[9],11.6 µM
same,TGI,[9],45 µM
same,GI50,[10],11 µM
same,TGI,[10],37.4 µM
same,GI50,[11],10.1 µM
same,TGI,[11],35.8 µM
same,GI50,[12],19.5 µM
same,TGI,[12],46.5 µM
same,GI50,[13],4.33 µM
same,TGI,[13],33.7 µM
same,GI50,[14],4.02 µM
same,TGI,[14],15.4 µM
same,GI50,[15],2.63 µM
same,TGI,[15],11.7 µM
same,GI50,[16],61 µM
same,TGI,[16],> 100 µM
same,GI50,[17],19.2 µM
same,TGI,[17],52.2 µM
same,GI50,[18],39.4 µM
same,TGI,[18],> 100 µM
same,GI50,[19],2.01 µM
same,TGI,[19],5.77 µM
same,GI50,[20],6.12 µM
same,TGI,[20],87.6 µM
same,GI50,[21],2.77 µM
same,TGI,[21],19.4 µM
same,GI50,[22],2.23 µM
same,TGI,[22],7.34 µM
same,GI50,[23],> 100 µM
same,TGI,[23],> 100 µM
same,GI50,[24],4.03 µM
same,TGI,[24],> 100 µM
same,GI50,[25],2.31 µM
same,TGI,[25],6.69 µM
same,GI50,[26],3.3 µM
same,TGI,[26],> 100 µM
same,GI50,[27],3.31 µM
same,TGI,[27],19.4 µM
same,GI50,[28],13.3 µM
same,TGI,[28],63.5 µM
same,GI50,[29],2.09 µM
same,TGI,[29],7.48 µM
same,GI50,[30],36.7 µM
same,TGI,[30],> 100 µM
same,GI50,[31],17.1 µM
same,TGI,[31],> 100 µM
same,GI50,[32],23.6 µM
same,TGI,[32],> 100 µM
same,GI50,[33],2.92 µM
same,TGI,[33],13.2 µM
same,GI50,[34],4.48 µM
same,TGI,[34],16.1 µM
same,GI50,[35],6.23 µM
same,TGI,[35],23 µM
same,GI50,[36],6.65 µM
same,TGI,[36],> 100 µM
same,GI50,[37],3.76 µM
same,TGI,[37],20.7 µM
same,GI50,[38],2.91 µM
same,TGI,[38],9.97 µM
same,GI50,[39],4.66 µM
same,TGI,[39],28.8 µM
same,GI50,[40],41.3 µM
same,TGI,[40],> 100 µM
same,GI50,[41],4.11 µM
same,TGI,[41],17.4 µM
same,GI50,[42],2.91 µM
same,TGI,[42],7.86 µM
same,GI50,[43],12.8 µM
same,TGI,[43],34.4 µM
same,GI50,[44],5.89 µM
same,TGI,[44],33.1 µM
same,GI50,[45],2.96 µM
same,TGI,[45],11.5 µM
same,GI50,[46],10.5 µM
same,TGI,[46],23.1 µM
same,GI50,[47],13.8 µM
same,TGI,[47],48 µM
same,GI50,[48],14.9 µM
same,TGI,[48],31.4 µM
same,GI50,[49],7.79 µM
same,TGI,[49],46.5 µM
same,GI50,[50],3.11 µM
same,TGI,[50],22.6 µM
same,GI50,[51],19.7 µM
same,TGI,[51],41.1 µM
same,GI50,[52],13.8 µM
same,TGI,[52],34.9 µM
same,GI50,[53],4.49 µM
same,TGI,[53],68.2 µM
same,GI50,[54],2.51 µM
same,TGI,[54],18.9 µM
same,GI50,[55],12.7 µM
same,TGI,[55],88.4 µM
